Measured values from US7153650B2, “Marker system for preparing and characterizing high-quality human embryonic stem cells” (Geron Corporation, priority 2003, dated 2006).
Marks after values point to notes of the source that are not given here.

Tested on: hES cells
Experiment: Quantitative RT-PCR analysis of gene expression in hESC differentiation (culture with RA or DMSO)
Format: cell-based, human
Details: for Fold Change, 130 kDa leucine-rich protein (LRP 130) mRNA / Fold Change, Bone marrow stromal antigen 2 (BST-2) mRNA / Fold Change, Bone morphogenetic protein receptor, type Ia (BMPR1A) (ALK-3) mRNA / Fold Change, EST (GA_28053, T24677) / Fold Change, Early development regulator 1 (polyhomeotic 1 homolog) (EDR1) mRNA / Fold Change, Ephrin type-a receptor 1 (EPHA1) mRNA / Fold Change, FLJ31267 (acetylglucosaminyltransferase-like protein) mRNA / Fold Change, Fibroblast growth factor receptor 3 precursor (FGFR-3) mRNA / Fold Change, Forkhead box h1 (FOXH1) mRNA / Fold Change, Forkhead box o1a (foxo1a) mRNA / Fold Change, Gamma-aminobutyric acid (GABA) A receptor, beta 3 mRNA / Fold Change, Gastrin-releasing peptide receptor (GRP-R) mRNA / Fold Change, Glypican-2 (cerebroglycan) mRNA / Fold Change, Hypothetical protein BC018070 mRNA / Fold Change, Hypothetical protein FLJ14549 mRNA / Fold Change, Kallmann syndrome 1 sequence (KAL1) mRNA / Fold Change, Krab-zinc finger protein SZF1-1 mRNA / Fold Change, Left-right determination, factor b (LEFTB) mRNA / Fold Change, Nell2 (NEL-like protein 2) mRNA / Fold Change, Notch 1 (N1) mRNA / Fold Change, Octamer-binding transcription factor 3a (OCT-3A) (OCT-4) mRNA / Fold Change, Podocalyxin-like (PODXL) mRNA / Fold Change, Potassium channel subfamily k member 5 (TASK-2) mRNA / Fold Change, Protein tyrosine phosphatase, receptor-type, z polypeptide 1 (PTPRZ1) mRNA / Fold Change, Roundabout, axon guidance receptor, homolog 1 (ROBO1) mRNA / Fold Change, Sal-like 1 (SALL1) mRNA / Fold Change, Secreted phosphoprotein 1 (osteopontin) mRNA / Fold Change, Solute carrier family 6, member 8 (SLC6A8) mRNA / Fold Change, Telomerase reverse transcriptase (TERT) mRNA / Fold Change, Teratocarcinoma-derived growth factor 1 (CRIPTO) mRNA / Fold Change, Thy-1 co-transcribed mRNA / Fold Change, Zic family member 3 (ZIC3) mRNA / Fold Change, Zinc finger protein of cerebellum ZIC2 mRNA / Fold Change, Zinc finger protein, HSAL2 mRNA / Fold Change, Pr domain containing 14 (PRDM14) mRNA: hES cells cultured 1 week with 500 nM RA or 0.5% DMSO; for Fold Change, Pr domain containing 14 (PRDM14) mRNA: normalised to 18S rRNA, 2^-ddCT
Protocol: To verify the expression patterns of particular genes of interest at the mRNA level, extracts of undifferentiated hES cells and their differentiated progeny were assayed by real-time PCR. Cells were cultured for 1 week with 0.5% dimethyl sulfoxide (DMSO) or 500 nM retinoic acid (RA). The samples were amplified using sequence-specific primers, and the rate of amplification was correlated with the expression level of each gene in the cell population.
Taqman™ RT-PCR was performed under the following conditions: 1×RT Master Mix (ABI), 300 nM for each primer, and 80 nM of probe, and 10 pg to 100 ng of total RNA in nuclease-free water. The reaction was conducted under default RT-PCR conditions of 48° C. hold for 30 min, 95° C. hold for 10 min, and 40 cycles of 95° C. at 15 sec and 60° C. hold for 1 min. RNA was isolated by a guanidinium isothiocyanate method (RNAeasy™ kit, Qiagen) according to manufacturer's instructions, and subsequently DNAse treated (DNAfree™ kit, Ambion). Gene-specific primers and probes were designed by PrimerExpress™ software (Ver. 1.5, ABI). Probe oligonucleotides were synthesized with the fluorescent indicators 6-carboxyfluorescein (FAM) and 6-carboxy-tetramethylrhodamine (TAMRA) at the 5′ and 3′ ends, respectively. Relative quantitation of gene expression between multiple samples was achieved by normalization against endogenous 18S ribosomal RNA (primer and probe from ABI) using the ΔΔCT method of quantitation (ABI). Fold change in expression level was calculated as 2^−ΔΔCT.
Since the cells have been cultured in RA and DMSO for a short period, they are at the early stages of differentiation, and the difference in expression level is less dramatic than it would be after further differentiation. Of particular interest for following or modulating the differentiation process are markers that show modified expression within the first week of differentiation by more than 2-fold (*), 5-fold (**), 10-fold (***), or 100-fold (****).
KALL and EPHAL were not tested.

[1] = H9 hES cells after culturing for 7 days with RA or DM (FIG. 1)

Row | Structure (SMILES) | Fold Change, 130 kDa leucine-rich protein (LRP 130) mRNA | Fold Change, Bone marrow stromal antigen 2 (BST-2) mRNA | Fold Change, Bone morphogenetic protein receptor, type Ia (BMPR1A) (ALK-3) mRNA | Fold Change, EST (GA_28053, T24677) | Fold Change, Early development regulator 1 (polyhomeotic 1 homolog) (EDR1) mRNA | Fold Change, Ephrin type-a receptor 1 (EPHA1) mRNA | Fold Change, FLJ31267 (acetylglucosaminyltransferase-like protein) mRNA | Fold Change, Fibroblast growth factor receptor 3 precursor (FGFR-3) mRNA | Fold Change, Forkhead box h1 (FOXH1) mRNA | Fold Change, Forkhead box o1a (foxo1a) mRNA | Fold Change, Gamma-aminobutyric acid (GABA) A receptor, beta 3 mRNA | Fold Change, Gastrin-releasing peptide receptor (GRP-R) mRNA | Fold Change, Glypican-2 (cerebroglycan) mRNA | Fold Change, Hypothetical protein BC018070 mRNA | Fold Change, Hypothetical protein FLJ14549 mRNA | Fold Change, Kallmann syndrome 1 sequence (KAL1) mRNA | Fold Change, Krab-zinc finger protein SZF1-1 mRNA | Fold Change, Left-right determination, factor b (LEFTB) mRNA | Fold Change, Nell2 (NEL-like protein 2) mRNA | Fold Change, Notch 1 (N1) mRNA | other results
1 | C[S+](C)[O-] [DMSO, dimethyl sulfoxide] | −1.9 fold | −1.9 fold | −2.4 fold | <−100* fold | −5.6 fold | −1.9 fold | −4.5 fold | 2.3 fold | −5.6 fold | −2.9 fold | −5.6 fold | −9.1 fold | −1.2 fold | −10.0 fold | −10.0 fold | −2.5 fold | −3.1 fold | −25.0 fold | −1.3 fold | 1.0 fold | Gene expression of ICAM in differentiated cells [1]: below the limit of detection; Gene expression of rhodopsin in differentiated cells [1]: below the limit of detection; Fold Change, Octamer-binding transcription factor 3a (OCT-3A) (OCT-4) mRNA: −7.7 fold; Fold Change, Podocalyxin-like (PODXL) mRNA: −4.3 fold; Fold Change, Potassium channel subfamily k member 5 (TASK-2) mRNA: 1.0 fold; Fold Change, Protein tyrosine phosphatase, receptor-type, z polypeptide 1 (PTPRZ1) mRNA: −3.3 fold; Fold Change, Roundabout, axon guidance receptor, homolog 1 (ROBO1) mRNA: 1.0 fold; Fold Change, Sal-like 1 (SALL1) mRNA: −1.3 fold; Fold Change, Secreted phosphoprotein 1 (osteopontin) mRNA: −10.0 fold; Fold Change, Solute carrier family 6, member 8 (SLC6A8) mRNA: −1.1 fold; Fold Change, Telomerase reverse transcriptase (TERT) mRNA: −2.3 fold; Fold Change, Teratocarcinoma-derived growth factor 1 (CRIPTO) mRNA: −12.5 fold; Fold Change, Thy-1 co-transcribed mRNA: −11.1 fold; Fold Change, Zic family member 3 (ZIC3) mRNA: −5.3 fold; Fold Change, Zinc finger protein of cerebellum ZIC2 mRNA: −2.9 fold; Fold Change, Zinc finger protein, HSAL2 mRNA: −2.8 fold; Fold Change, Pr domain containing 14 (PRDM14) mRNA: −8.3 fold
2 | CC1=C(/C=C/C(C)=C/C=C/C(C)=C/C(=O)O)C(C)(C)CCC1 [RA, retinoic acid] | −1.9 fold | 1.1 fold | −2.4 fold | <−100* fold | −1.8 fold | −1.3 fold | −2.3 fold | 1.5 fold | −1.8 fold | −1.6 fold | −2.8 fold | −6.3 fold | −1.5 fold | −3.2 fold | −2.3 fold | −1.1 fold | −1.8 fold | −16.7 fold | −1.3 fold | 1.3 fold | Fold Change, Octamer-binding transcription factor 3a (OCT-3A) (OCT-4) mRNA: −3.7 fold; Fold Change, Podocalyxin-like (PODXL) mRNA: −2.6 fold; Fold Change, Potassium channel subfamily k member 5 (TASK-2) mRNA: −1.6 fold; Fold Change, Protein tyrosine phosphatase, receptor-type, z polypeptide 1 (PTPRZ1) mRNA: −1.7 fold; Fold Change, Roundabout, axon guidance receptor, homolog 1 (ROBO1) mRNA: 1.1 fold; Fold Change, Sal-like 1 (SALL1) mRNA: 1.4 fold; Fold Change, Secreted phosphoprotein 1 (osteopontin) mRNA: −3.8 fold; Fold Change, Solute carrier family 6, member 8 (SLC6A8) mRNA: −1.1 fold; Fold Change, Telomerase reverse transcriptase (TERT) mRNA: −2.1 fold; Fold Change, Teratocarcinoma-derived growth factor 1 (CRIPTO) mRNA: −4.0 fold; Fold Change, Thy-1 co-transcribed mRNA: −12.5 fold; Fold Change, Zic family member 3 (ZIC3) mRNA: −1.7 fold; Fold Change, Zinc finger protein of cerebellum ZIC2 mRNA: 1.0 fold; Fold Change, Zinc finger protein, HSAL2 mRNA: −1.4 fold; Fold Change, Pr domain containing 14 (PRDM14) mRNA: −1.9 fold
